Measurements: the supplement of paper PMC10307832

Legend:
Assay in all cases: relative viability (nuclei count vs DMSO), 5 days (fraction); higher = more cells survive
201T = system: 201T
Method in brief: (§1)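 A single step with final 0.05% Triton X-100, 1% formaldehyde and 1 ug/ml Hoechst fixed the cells and stained nuclei 5 days after treatment. Lung cancer cell lines in 1536-well plates had been treated by pin tool the day after seeding with one drug alone or a fixed anchor-drug dose plus five library-drug doses (not always all listed) in √10 steps, and nuclei were counted on 4× images. Relative viability is the ratio of nuclei in treated wells to nuclei in vehicle wells, taken as the median of duplicate plates.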

BEN = system: BEN
Method in brief: as §1

CAL-12T = system: CAL-12T
Method in brief: as §1

HCC-44 = system: HCC-44
Method in brief: as §1

HCC-827 = system: HCC-827
Method in brief: as §1

HOP-62 = system: HOP-62
Method in brief: as §1

LCLC-103H = system: LCLC-103H
Method in brief: as §1

LCLC-97TM1 = system: LCLC-97TM1
Method in brief: as §1

LXF-289 = system: LXF-289
Method in brief: as §1

NCI-H1395 = system: NCI-H1395
Method in brief: as §1

NCI-H1437 = system: NCI-H1437
Method in brief: as §1

NCI-H1650 = system: NCI-H1650
Method in brief: as §1

NCI-H1793 = system: NCI-H1793
Method in brief: as §1

NCI-H1944 = system: NCI-H1944
Method in brief: as §1

NCI-H2087 = system: NCI-H2087
Method in brief: as §1

NCI-H2228 = system: NCI-H2228
Method in brief: as §1

NCI-H2405 = system: NCI-H2405
Method in brief: as §1

NCI-H3122 = system: NCI-H3122
Method in brief: as §1

NCI-H322M = system: NCI-H322M
Method in brief: as §1

NCI-H647 = system: NCI-H647
Method in brief: as §1

NCI-H727 = system: NCI-H727
Method in brief: as §1

RERF-LC-KJ = system: RERF-LC-KJ
Method in brief: as §1

SK-LU-1 = system: SK-LU-1
Method in brief: as §1

Work on `O=C(O)c1ccc(-c2c[nH]c3ncc(-c4ccccc4)cc23)cc1C1CCCC1` + O=C(c1cc(Cc2n[nH]c(=O)c3ccccc23)ccc1F)N1CCN(C(=O)C2CC2)CC1 [Olaparib] (partner 8 µM) yielded a relative viability (201T; first compound 0.04 µM) of 0.837, a relative viability (201T; first compound 0.1265 µM) of 0.866 and a relative viability (201T; first compound 0.4 µM) of 0.827. For the same molecule, the relative viability (201T; first compound 1.265 µM) was 0.775, the relative viability (BEN; first compound 0.04 µM) was 1.05 and the relative viability (BEN; first compound 0.1265 µM) was 1.06. It also gave a relative viability (BEN; first compound 0.4 µM) of 1.09, a relative viability (BEN; first compound 1.265 µM) of 0.944 and a relative viability (CAL-12T; first compound 0.04 µM) of 0.656. It also gave a relative viability (CAL-12T; first compound 0.1265 µM) of 0.668, a relative viability (CAL-12T; first compound 0.4 µM) of 0.566 and a relative viability (CAL-12T; first compound 1.265 µM) of 0.379. The relative viability (HCC-44; first compound 0.04 µM) was 0.998, the relative viability (HCC-44; first compound 0.1265 µM) was 0.975 and the relative viability (HCC-44; first compound 0.4 µM) was 0.975. It also gave a relative viability (HCC-44; first compound 1.265 µM) of 0.95, a relative viability (HCC-827; first compound 0.04 µM) of 0.559 and a relative viability (HCC-827; first compound 0.1265 µM) of 0.714. The relative viability (HCC-827; first compound 0.4 µM) was 0.569, the relative viability (HCC-827; first compound 1.265 µM) was 0.398 and the relative viability (HOP-62; first compound 0.04 µM) was 0.352. The relative viability (HOP-62; first compound 0.1265 µM) was 0.448, the relative viability (HOP-62; first compound 0.4 µM) was 0.356 and the relative viability (HOP-62; first compound 1.265 µM) was 0.382. The relative viability (LCLC-103H; first compound 0.04 µM) was 0.728, the relative viability (LCLC-103H; first compound 0.1265 µM) was 0.771 and the relative viability (LCLC-103H; first compound 0.4 µM) was 0.758. For the same molecule, the relative viability (LCLC-103H; first compound 1.265 µM) was 0.729, the relative viability (LCLC-97TM1; first compound 0.04 µM) was 0.435 and the relative viability (LCLC-97TM1; first compound 0.1265 µM) was 0.54. The relative viability (LCLC-97TM1; first compound 0.4 µM) was 0.396, the relative viability (LCLC-97TM1; first compound 1.265 µM) was 0.258 and the relative viability (LXF-289; first compound 0.04 µM) was 1.07. It also gave a relative viability (LXF-289; first compound 0.1265 µM) of 0.935, a relative viability (LXF-289; first compound 0.4 µM) of 0.709 and a relative viability (LXF-289; first compound 1.265 µM) of 0.507. The relative viability (NCI-H1395; first compound 0.04 µM) was 0.473, the relative viability (NCI-H1395; first compound 0.1265 µM) was 0.495 and the relative viability (NCI-H1395; first compound 0.4 µM) was 0.495. It also gave a relative viability (NCI-H1395; first compound 1.265 µM) of 0.444, a relative viability (NCI-H1437; first compound 0.04 µM) of 0.666 and a relative viability (NCI-H1437; first compound 0.1265 µM) of 0.633. For the same molecule, the relative viability (NCI-H1437; first compound 0.4 µM) was 0.556, the relative viability (NCI-H1437; first compound 1.265 µM) was 0.279 and the relative viability (NCI-H1650; first compound 0.04 µM) was 0.735. The relative viability (NCI-H1650; first compound 0.1265 µM) was 0.815, the relative viability (NCI-H1650; first compound 0.4 µM) was 0.65 and the relative viability (NCI-H1650; first compound 1.265 µM) was 0.606. For the same molecule, the relative viability (NCI-H1793; first compound 0.04 µM) was 0.878, the relative viability (NCI-H1793; first compound 0.1265 µM) was 1.03 and the relative viability (NCI-H1793; first compound 0.4 µM) was 0.963. The relative viability (NCI-H1793; first compound 1.265 µM) was 0.512, the relative viability (NCI-H1944; first compound 0.04 µM) was 0.421 and the relative viability (NCI-H1944; first compound 0.1265 µM) was 0.444. The relative viability (NCI-H1944; first compound 0.4 µM) was 0.412, the relative viability (NCI-H1944; first compound 1.265 µM) was 0.36 and the relative viability (NCI-H2087; first compound 0.04 µM) was 0.686. For the same molecule, the relative viability (NCI-H2087; first compound 0.1265 µM) was 0.597, the relative viability (NCI-H2087; first compound 0.4 µM) was 0.524 and the relative viability (NCI-H2087; first compound 1.265 µM) was 0.342. For the same molecule, the relative viability (NCI-H2228; first compound 0.04 µM) was 0.728, the relative viability (NCI-H2228; first compound 0.1265 µM) was 0.645 and the relative viability (NCI-H2228; first compound 0.4 µM) was 0.626. It also gave a relative viability (NCI-H2228; first compound 1.265 µM) of 0.309, a relative viability (NCI-H2405; first compound 0.04 µM) of 0.823 and a relative viability (NCI-H2405; first compound 0.1265 µM) of 0.951. The relative viability (NCI-H2405; first compound 0.4 µM) was 0.778, the relative viability (NCI-H2405; first compound 1.265 µM) was 0.584 and the relative viability (NCI-H3122; first compound 0.04 µM) was 0.654. It also gave a relative viability (NCI-H3122; first compound 0.1265 µM) of 0.666, a relative viability (NCI-H3122; first compound 0.4 µM) of 0.602 and a relative viability (NCI-H3122; first compound 1.265 µM) of 0.617. The relative viability (NCI-H322M; first compound 0.04 µM) was 0.856, the relative viability (NCI-H322M; first compound 0.1265 µM) was 0.718 and the relative viability (NCI-H322M; first compound 0.4 µM) was 0.661. For the same molecule, the relative viability (NCI-H322M; first compound 1.265 µM) was 0.554, the relative viability (NCI-H647; first compound 0.04 µM) was 0.5 and the relative viability (NCI-H647; first compound 0.1265 µM) was 0.619. The relative viability (NCI-H647; first compound 0.4 µM) was 0.494, the relative viability (NCI-H647; first compound 1.265 µM) was 0.322 and the relative viability (NCI-H727; first compound 0.04 µM) was 0.629. The relative viability (NCI-H727; first compound 0.1265 µM) was 0.713, the relative viability (NCI-H727; first compound 0.4 µM) was 0.633 and the relative viability (NCI-H727; first compound 1.265 µM) was 0.563. The relative viability (RERF-LC-KJ; first compound 0.04 µM) was 0.9, the relative viability (RERF-LC-KJ; first compound 0.1265 µM) was 0.788 and the relative viability (RERF-LC-KJ; first compound 0.4 µM) was 0.786. The relative viability (RERF-LC-KJ; first compound 1.265 µM) was 0.473, the relative viability (SK-LU-1; first compound 0.04 µM) was 0.457 and the relative viability (SK-LU-1; first compound 0.1265 µM) was 0.459. It also gave a relative viability (SK-LU-1; first compound 0.4 µM) of 0.512 and a relative viability (SK-LU-1; first compound 1.265 µM) of 0.318.
